Results as given in US12102675B2, “MRNA therapeutic compositions” (Nutcracker Therapeutics, Inc., priority 2022, dated 2024).
“Also recorded” adds a separate entry of the source.

Assays:
[1] = Rat toxicology study, control mRNA in DV-140-F2, intramuscular; format: in vivo, Sprague-Dawley rats; details: 4 doses in 2 weeks
Method: Briefly, Sprague-Dawley rats (n=8) were treated with a control mRNA formulated in DV-140-F2 at 0.03 or 0.3 mg/kg or PBS vehicle. Injections were done 4 times over the course of 13 days and were administered intramuscularly into the hind limb. Whole blood was taken for hematology, and serum taken for clinical chemistry and cytokine analysis at 6 hours post the first dose and final dose, and 2 weeks post the final dose. Additionally, 2 of the animals were sacrificed at 6 hours post the final dose and 2 weeks post final dose and a gross necropsy was performed. Tissue samples were retained and histopathology run on select organs.

[2] = system: recurrent or metastatic cervical cancer, tumors express PD-L1 (CPS≥1); details: single agent, disease progression on or after chemotherapy; cited from earlier work
[3] = system: persistent, recurrent, or metastatic cervical cancer, tumors express PD-L1 (CPS≥1); details: in combination with chemotherapy, with or without bevacizumab; cited from earlier work
[4] = biological target: T1, HVEM (Homo sapiens, UniProt Q92956); test: HVEM activation by LIGHT, HVEM reporter cell line; format: cell-based; details: FIGS. 1A, 1B, 12
T1 construct: host or cells: HVEM reporter cell line (not further described)
T1 sequence (Q92956 39-283): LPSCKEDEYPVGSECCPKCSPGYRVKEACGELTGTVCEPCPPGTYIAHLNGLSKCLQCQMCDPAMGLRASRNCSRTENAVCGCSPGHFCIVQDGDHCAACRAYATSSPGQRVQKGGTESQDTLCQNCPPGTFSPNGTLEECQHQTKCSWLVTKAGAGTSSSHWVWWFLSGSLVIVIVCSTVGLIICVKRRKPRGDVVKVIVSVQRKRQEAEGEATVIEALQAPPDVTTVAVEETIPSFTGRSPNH
Source text: FIG. 12 illustrates pre-blocking of soluble LIGHT in HVEM co-HEK transfected cells.
FIGS. 13A-13C are a comparison of HVEM activation with supernatant (blue) or cells (orange) for soluble LIGHT or membrane-stabilized LIGHT.

[5] = system: CD3+ T cells; test: T cell proliferation in co-culture with HEK cells transfected with LIGHT variants; format: cell-based, human; details: vs soluble (Wt) LIGHT, FIGS. 9A, 9B
Method: LIGHT variants were formulated in MessengerMax mRNA Transfection Reagent. Human embryonic kidney (HEK) cells were transfected with the LIGHT variant constructs for cell surface expression of LIGHT. CellTrace Violet (Thermo Fischer Scientific) was used to label CD3+ T cells from the resulting peripheral blood mononuclear cells (PBMC). 100 ng/mL of soluble CD3 Antibody was added to the resulting labeled CD3+ T cells. The T cell proliferation and interferon-gamma (IFN-7) secretion was evaluated about 5 days of co-culture.

[6] = system: primary human T cell; test: Human T cell proliferation in response to ENG or WT hLIGHT mRNA with hIL-12 mRNA; format: cell-based; details: HEK293 transfected with hIL-12 mRNA plus LIGHT mRNA, 1:5 with T cells, anti-CD3 30 or 100 ng/mL, 4 days; relative to IL-12 and WT hLIGHT
Method: This study was designed to compare the ability of ENG and WT hLIGHT mRNAs in combination with hIL-12 mRNA to stimulate primary human T cell proliferation. Human T cells were isolated from PBMCs from 1 healthy donor and stained with CellTrace Violet. HEK293 cells were transfected with hIL-12 mRNA (RNA-683) and WT hLIGHT (RNA-786) or ENG hLIGHT (RNA-1359) mRNA formulated in Lipofectamine MessengerMAX (0.5 ng each mRNA per 1000 cells). Control cells were transfected with noncoding mRNA control in the same way. Transfected HEK293 cells were cocultured with the T cells in a 1:5 ratio in the presence of 30 ng/mL or 100 ng/mL anti-CD3 antibody to mimic antigen specific TCR engagement for 4 days at 37° C., 5% CO2. CD8+ T cell proliferation was assessed by flow cytometry and the proliferation index was calculated. […] The results are shown in FIG. 10A, where ENG=engineered; HEK=human embryonic kidney; IL-12=interleukin-12; PBMC=peripheral blood mononuclear cell; WT=wildtype. The data in FIG. 10A represent mean±standard deviation (n=4). Statistical analysis was performed by unpaired student's t-test (P<0.05).

[7] = system: transfected cells; test: Surface expression of soluble or membrane-stabilized LIGHT by flow cytometry using HVEM binding; format: cell-based; details: compared to WT LIGHT mRNA
Source text: FIGS. 14A and 14B depict the assessment of surface expression of soluble LIGHT or membrane-stabilized LIGHT by flow cytometry using HVEM binding.

[8] = High dose in rat, 100 μg RNA IM
[9] = Therapeutic dose scaled for rat, 30 μg RNA IM

In the case of `CCCCCCCCCCN(CC(N)=O)C(=O)CN(CCCCCCCCCC)C(=O)CN(CCCCCCCCCC)C(=O)CN(CCCCCCCCCC)C(=O)CNCCO` [Compound 140, N-(2-amino-2-oxoethyl)-N-decyl-2-(N-decyl-2-(N-decyl-2-(N-decyl-2-((2-hydroxyethyl)amino)acetamido)acetamido)acetamido)acetamide], the Gross organ pathology [1, 8] is reported as “None observed”, the “Injection site reactions or other clinical observations” value [1, 8] is reported as “None observed” and the Gross organ pathology [1, 9] is reported as “None observed”. For the same molecule, the “Injection site reactions or other clinical observations” value [1, 9] was “None observed”.

In the case of pembrolizumab [KEYTRUDA], the objective response [2] is given as “around 14%” and the overall survival [3] is given as “improvements in overall survival”.

B1: soluble LIGHT: Wild-type soluble human LIGHT (SEQ ID NO: 1) (protein)
chain: MEESVVRPSVFVVDGQTDIPFTRLGRSHRRQSCSVARVGLGLLLLLMGAGLAVQGWFLLQLHWRLGEMVTRLPDGPAGSWEQLIQERRSHEVNPAAHLTGANSSLTGSGGPLLWETQLGLAFLRGLSYHDGALVVTKAGYYYIYSKVQLGGVGCPLGLASTITHGLYKRTPRYPEELELLVSQQSPCGRATSSSRVWWDSSFLGGVVHLEAGEEVVVRVLDERLVRLRDGTRSYFGAFMV
modifications: Human Wild Type LIGHT (786) aa
For B1, the “effect of soluble LIGHT on HVEM binding and signaling by membrane-stabilized LIGHT” value [4] was “decreases the ability of membrane-stabilized LIGHT to activate HVEM; also recorded: competes for HVEM binding and reduces signaling by membrane-stabilized LIGHT”.

B2: ENG hLIGHT: mRNA SEQ ID NO: 18 encoding human LIGHT with amino acids #66-92 replaced by 10 amino acid linker (SEQ ID NO: 17) (nucleic acid)
chain: AGGCAUAGAAGUCGAGACACAGCCACUAAGUAAGCCACCAUGGAGGAGAGCGUGGUGCGGCCUAGCGUGUUCGUGGUCGACGGCCAGACCGACAUCCCCUUCACCAGACUGGGAAGAAGCCACAGAAGGCAGUCUUGCUCCGUGGCCAGAGUGGGCCUGGGCCUGCUCCUGCUGCUGAUGGGCGCUGGCCUGGCCGUGCAAGGCUGGUUCCUGCUGCAGCUGCACUGGCGGCUGGGCAGCAGCGCCUCUACCGAUAAGACCCACACCGUGAACCCUGCCGCCCACCUGACCGGCGCCAACAGCUCUCUGACCGGAUCUGGCGGACCUCUGCUGUGGGAGACACAGCUGGGCCUUGCUUUUCUGCGGGGCCUGAGCUACCACGACGGCGCUCUGGUGGUUACAAAGGCCGGCUACUACUACAUCUACAGCAAGGUGCAGCUGGGAGGCGUGGGUUGUCCACUGGGACUGGCCAGCACAAUCACACACGGCCUUUAUAAGCGGACCCCUAGAUACCCCGAGGAACUGGAACUGCUGGUCUCCCAGCAGAGCCCUUGCGGCAGAGCCACAAGCAGCAGCAGAGUGUGGUGGGACAGCUCAUUCCUGGGCGGCGUGGUGCAUCUGGAAGCCGGCGAGAAAGUGGUGGUCAGAGUGCUGGACGAGAGACUGGUGCGGCUGAGAGAUGGGACCCGCUCCUACUUCGGCGCCUUUAUGGUGUGAUAAGCGCCGCCUCCGGGACAGUGCACCCAGGCUGCGGCCCCUCCCCCGUCCUGGAGGUUCCCCAGCCCCACUUACCGCUUAAUGCGCCAAUAAACCAAUGAACGAAGCAAAAAAAAAAAAAAAAAAAAAAAAAAAAAAAAAAAAAAAAAAAAAAAAAAAAAAAAAAAAAAAAAAAAAAAAAAAAAAAAAAAAAAAAAAAAAAAAAAAAAAAAAAAAAAAAAAAAAAAAAAAAAAAAAAAAAAAAAAAAAAAAAAAAAAAAAAAAAAAAAAAAAAAAA
modifications: LIGHT ICD TM 1-66 RLG … LIGHT 92-240 1359, aka 1495 nt
For B2, the T-cell proliferation ([5]; listed as 1359) was “increase of T-cell proliferation”, the T-cell proliferation ([5]; listed as ENG LIGHT mRNA) was “increased T cell proliferation” and the “CD8+ T cell proliferation and survival” value [6] was “increased CD8+ T cell proliferation and survival”. For the same molecule, the “surface expression and bioactivity on transfected cells” value [7] was “higher surface expression and bioactivity”.
